One molecule from BindingDB's records for doi:10.1021/jm00051a016 (University of Michigan, 1995) can be followed below.

Experiment [1] concerns the target T1, Mu-type opioid receptor (Cavia porcellus, UniProt P97266). Put plainly: Agonist activity was assessed in an guinea pig ileum (GPI) smooth muscle bioassay.
The target of experiment [2] is T1, Mu-type opioid receptor. The experiment is described as follows: Binding affinity against mu opioid receptor using [3H]DAMGO in guinea pig ileum.

T1 sequence (P97266 whole entry): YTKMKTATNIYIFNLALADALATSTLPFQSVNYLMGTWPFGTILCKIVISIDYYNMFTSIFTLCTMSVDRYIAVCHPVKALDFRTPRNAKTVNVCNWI

The term IC50 denotes the concentration that inhibits the measured activity by half. The low end stands for greater potency, the high end for weaker potency. The term Ki denotes a measure of affinity in units of concentration, obtained from inhibition or displacement. A high value points to a looser hold on the target. In experiment [1], `CN1C(=O)[C@H](CS)N(C(=O)[C@@H](N)Cc2ccc(O)cc2)C(=O)[C@@H](C(C)(C)S)NC(=O)[C@@H]1Cc1ccccc1` [4-[2-Amino-3-(4-hydroxy-phenyl)-propionyl]-9-benzyl-3-mercaptomethyl-6-(1-mercapto-1-methyl-ethyl)-1-methyl-[1,4,7]triazonane-2,5,8-trione] registered an IC50 greater than 30 µM. The Ki in experiment [2] is greater than 10 µM.
